From PMC9304199, “A small molecule CFTR potentiator restores ATP‐dependent channel gating to the cystic fibrosis mutant G551D‐CFTR” (British Journal of Pharmacology, 2022)

Tests used:
wild‐type CFTR = target: T1, wild‐type CFTR (Homo sapiens, UniProt P13569); experiment: Single-channel recording in excised inside-out membrane patches, wild-type CFTR; type: biochemical; conditions: ATP 0.3 mM; for maximum Po (Po max) / EC50: PKA 75 nM, ~23°C; for EC50: read-out: EC50 for potentiation of Po
T1 construct: expressed in transfected cells
Method: For CFTR studies using automated electrophysiology and single-channel recording, we used baby hamster kidney (BHK) cells (RRID:CVCL_1915) and human embryonic kidney (HEK) 293 cells (RRID:CVCL_0045) stably expressing wild-type human CFTR and the CFTR variants F508del- and […] et al., [2002]; Xu et al., [2014]). […] HEK cells expressing CFTR variants were generated using the Flp-InTM system as described above for F508del- and G551D-CFTR-expressing FRT cells. They were cultured in Dulbecco's modified Eagle's medium (glucose, 1.5 g·L^-1; sodium pyruvate, 110 mg·L^-1) supplemented with 10% FBS (PAA Laboratories), GlutaMAXTM and hygromycin-B (150 μg·ml^-1; InvitrogenTM, Thermo Fisher Scientific) at 37°C in a humidified atmosphere with 5% CO2. Prior to study, F508del-CFTR expressed in HEK cells was trafficked to the plasma membrane by low temperature incubation (27°C for 24-72 h). The single-channel behaviour of human CFTR in excised membrane patches from different mammalian cell lines heterologously expressing CFTR is equivalent (wild-type CFTR, Chen et al., [2009]; F508del-CFTR, Bose et al., [2019]; and G551D-CFTR, J Liu, Y Wang, Z Cai, and DN Sheppard, unpublished observations). CFTR Cl^- channels were recorded in excised inside-out membrane patches using an Axopatch 200B patch-clamp amplifier and pCLAMP software (version 10.3) (RRID:SCR_011323) (both from Molecular Devices, San Jose, CA, USA) (Sheppard & Robinson, [1997]). […] Within 2 min after membrane patch excision, we added the catalytic subunit of protein kinase A (PKA; 75 nM) and ATP (1 mM) to the intracellular solution to activate CFTR Cl^- channels. To minimise channel rundown, we added PKA and millimolar concentrations of ATP to all intracellular solutions and clamped voltage at -50 mV. […] We reduced the ATP concentration when testing CFTR potentiators on wild-type CFTR to observe their effects more clearly. […] Instead, specific interventions with CFTR potentiators were compared with the pre-intervention control period made with the same concentration of ATP and PKA, but without test compounds. […] F508del-CFTR, n ≤ 4; G551D-CFTR, n ≤ 5). To determine channel number, we used the maximum number of simultaneous channel openings observed during an experiment (Cai et al., [2006]). To minimise errors, we used experimental conditions that robustly potentiate channel activity and verified that recordings were of sufficient length to ascertain the correct number of channels ([…] et al., [1994]). […] Despite our precautions, we cannot exclude the possibility of unobserved G551D-CFTR Cl^- channels in excised membrane patches causing Po values for G551D-CFTR to be […]. Therefore, Po values for G551D-CFTR are expressed as apparent Po (Po(app)) values. Single-channel currents were directly acquired to a computer hard disc after filtering at a corner frequency (f c) of 500 Hz with an eight-pole Bessel filter (model LHBF-48×; npi electronic GmbH, Tamm, Germany) and digitising at a sampling rate of 5 kHz using a Digidata 1440A interface (Molecular Devices) and pCLAMP software. […] The mean interburst interval (TIBI) was calculated using the equation (Cai et al., [2006]): (1) Po=Tb/TMBD+TIBI, where T b = (mean burst duration) × (open probability within a burst). Mean burst duration (T MBD) and open probability within a burst (Po[burst]) were determined directly from experimental data using pCLAMP software. […]

F508del‐CFTR = F508del‐CFTR (Homo sapiens, UniProt P13569, DEL508-508); experiment: Thermal stability (deactivation) of F508del‐CFTR in excised inside-out membrane patches at 37°C; type: biochemical; design: expressed in transfected cells; BHK cells from MD Amaral
Method: To investigate the effects of CFTR potentiators on the plasma membrane stability of F508del‐CFTR, we monitored its thermal stability in excised inside‐out membrane patches at 37°C (Wang et al., [2014]). Membrane patches were excised and F508del‐CFTR Cl^− channels activated at 27°C. Once channels were fully activated and potentiated, the temperature of the intracellular solution was increased to 37°C, which took 2–3 min. To quantify data, we calculated open probability (Po) and normalised Po values in 30‐s intervals over a 9‐min period (Wang et al., [2014]).

F508del‐CFTR, sequence (P13569 with tags, fused parts or gaps DEL508-508): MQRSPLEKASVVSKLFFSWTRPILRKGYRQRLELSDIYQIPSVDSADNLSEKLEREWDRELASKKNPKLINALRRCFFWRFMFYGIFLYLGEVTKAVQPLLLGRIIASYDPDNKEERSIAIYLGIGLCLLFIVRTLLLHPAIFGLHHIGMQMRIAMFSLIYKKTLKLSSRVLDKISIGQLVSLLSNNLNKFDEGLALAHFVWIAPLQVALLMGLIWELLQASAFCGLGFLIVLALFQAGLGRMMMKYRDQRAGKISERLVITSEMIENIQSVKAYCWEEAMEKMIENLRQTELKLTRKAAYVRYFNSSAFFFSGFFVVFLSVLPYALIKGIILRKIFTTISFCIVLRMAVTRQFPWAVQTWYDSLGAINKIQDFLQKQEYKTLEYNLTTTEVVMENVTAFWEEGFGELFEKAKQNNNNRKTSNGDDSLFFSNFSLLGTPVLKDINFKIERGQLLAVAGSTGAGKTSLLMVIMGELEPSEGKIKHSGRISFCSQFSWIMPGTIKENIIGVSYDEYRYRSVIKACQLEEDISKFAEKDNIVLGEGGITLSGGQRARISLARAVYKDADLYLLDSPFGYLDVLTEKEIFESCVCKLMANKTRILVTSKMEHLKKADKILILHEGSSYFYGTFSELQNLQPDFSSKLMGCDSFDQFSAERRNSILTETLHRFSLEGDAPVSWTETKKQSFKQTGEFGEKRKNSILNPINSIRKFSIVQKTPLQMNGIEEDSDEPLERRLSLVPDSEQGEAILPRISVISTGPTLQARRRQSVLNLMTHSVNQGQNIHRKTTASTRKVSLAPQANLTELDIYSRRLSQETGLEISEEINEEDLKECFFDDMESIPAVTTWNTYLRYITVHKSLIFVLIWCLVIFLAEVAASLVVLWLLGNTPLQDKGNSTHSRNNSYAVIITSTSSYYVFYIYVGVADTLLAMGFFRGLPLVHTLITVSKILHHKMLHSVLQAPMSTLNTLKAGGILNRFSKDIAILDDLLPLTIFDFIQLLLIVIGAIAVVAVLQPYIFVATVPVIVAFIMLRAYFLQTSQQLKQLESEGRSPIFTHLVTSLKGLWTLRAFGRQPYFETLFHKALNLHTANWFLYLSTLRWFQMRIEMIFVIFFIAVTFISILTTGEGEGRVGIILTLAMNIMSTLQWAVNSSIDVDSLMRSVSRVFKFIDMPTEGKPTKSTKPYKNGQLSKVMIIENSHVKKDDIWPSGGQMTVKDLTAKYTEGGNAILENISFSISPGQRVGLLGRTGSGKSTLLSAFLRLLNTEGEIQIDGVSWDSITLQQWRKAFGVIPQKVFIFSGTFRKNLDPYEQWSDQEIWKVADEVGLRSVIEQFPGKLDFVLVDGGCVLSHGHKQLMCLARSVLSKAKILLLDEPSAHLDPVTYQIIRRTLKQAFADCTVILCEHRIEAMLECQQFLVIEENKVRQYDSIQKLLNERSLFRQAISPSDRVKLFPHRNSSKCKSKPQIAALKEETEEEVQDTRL
T1 sequence (P13569 whole entry): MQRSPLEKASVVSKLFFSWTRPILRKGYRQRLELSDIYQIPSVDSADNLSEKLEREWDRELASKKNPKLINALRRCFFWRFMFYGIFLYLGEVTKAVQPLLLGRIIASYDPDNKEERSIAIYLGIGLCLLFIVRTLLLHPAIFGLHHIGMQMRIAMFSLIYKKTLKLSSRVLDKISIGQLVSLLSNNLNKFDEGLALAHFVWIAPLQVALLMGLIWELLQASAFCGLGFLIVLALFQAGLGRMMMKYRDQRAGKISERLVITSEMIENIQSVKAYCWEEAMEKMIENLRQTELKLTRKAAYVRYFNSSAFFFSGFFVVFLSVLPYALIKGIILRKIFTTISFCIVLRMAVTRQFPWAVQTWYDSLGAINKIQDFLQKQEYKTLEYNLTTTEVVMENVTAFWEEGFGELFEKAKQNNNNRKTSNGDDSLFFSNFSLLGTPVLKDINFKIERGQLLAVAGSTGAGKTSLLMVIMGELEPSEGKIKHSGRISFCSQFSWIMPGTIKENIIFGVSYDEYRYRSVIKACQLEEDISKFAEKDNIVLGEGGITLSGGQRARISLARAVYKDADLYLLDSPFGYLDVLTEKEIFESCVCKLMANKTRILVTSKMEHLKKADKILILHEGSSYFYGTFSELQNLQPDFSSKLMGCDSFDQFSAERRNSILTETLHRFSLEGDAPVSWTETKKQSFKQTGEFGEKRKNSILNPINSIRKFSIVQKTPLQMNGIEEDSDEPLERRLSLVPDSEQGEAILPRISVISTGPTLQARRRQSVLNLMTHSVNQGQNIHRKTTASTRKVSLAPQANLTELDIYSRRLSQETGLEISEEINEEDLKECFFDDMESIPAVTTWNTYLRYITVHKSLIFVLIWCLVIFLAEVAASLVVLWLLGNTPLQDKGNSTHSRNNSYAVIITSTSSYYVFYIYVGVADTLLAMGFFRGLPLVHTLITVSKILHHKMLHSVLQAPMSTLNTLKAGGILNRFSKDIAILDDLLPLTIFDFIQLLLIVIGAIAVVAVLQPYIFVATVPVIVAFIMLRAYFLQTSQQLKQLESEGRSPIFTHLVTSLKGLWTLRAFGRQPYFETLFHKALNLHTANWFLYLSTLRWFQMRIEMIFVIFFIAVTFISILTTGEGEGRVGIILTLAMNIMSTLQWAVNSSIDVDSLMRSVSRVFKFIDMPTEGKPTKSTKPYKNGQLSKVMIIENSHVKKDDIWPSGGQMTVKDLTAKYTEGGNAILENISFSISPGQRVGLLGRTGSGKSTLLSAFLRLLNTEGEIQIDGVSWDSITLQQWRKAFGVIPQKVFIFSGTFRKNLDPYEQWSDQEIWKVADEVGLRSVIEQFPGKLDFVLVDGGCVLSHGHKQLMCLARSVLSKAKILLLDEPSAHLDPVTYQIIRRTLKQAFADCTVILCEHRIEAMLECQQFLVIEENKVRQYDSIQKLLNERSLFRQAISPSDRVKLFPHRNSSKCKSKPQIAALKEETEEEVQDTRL

| SMILES | greater potency than CP‐628006 (wild‐type CFTR) [fold] | maximum Po (Po max) (wild‐type CFTR) | EC50 (wild‐type CFTR) [nM] | acceleration of F508del‐CFTR deactivation (time to reach normalised Po of 50%) (F508del‐CFTR; compound 1 μM, ATP 1 mM, PKA 75 nM, versus low temperature-rescued control) | increase of time to normalised Po of 50% relative to low temperature-rescued (F508del‐CFTR; compound 10 μM) | delay of F508del‐CFTR deactivation (time to reach normalised Po of 50%) (F508del‐CFTR; compound 10 μM, ATP 1 mM, PKA 75 nM, versus low temperature-rescued control) |
| --- | --- | --- | --- | --- | --- | --- |
| CC(C)(C)c1cc(C(C)(C)C)c(NC(=O)c2c[nH]c3ccccc3c2=O)cc1O [ivacaftor, reference compound] | 100 | 0.71 | 0.21 | ~ 30 s | – | – |
| Cc1ncccc1CNC(=O)c1ccc2c(c1)CC[C@H]1C[C@](O)(CCC(F)(F)F)CC[C@]21Cc1ccccc1 (racemic) [CP‐628006, rac‐(4bR,7R,8aS)‐4b‐benzyl‐7‐hydroxy‐N‐((2‐methylpyridin‐3‐yl)methyl)‐7‐(3,3,3‐trifluoropropyl)‐4b,5,6,7,8,8a,9,10‐octahydrophenanthrene‐2‐carboxamide] | – | 0.77 | 24 | – | approximately 67% | ~ 90 s |
